Where a SMILES comes first, the peptide text is derived from it. [ ]: non-standard residue; d: D form. The star is where a group is joined. dPhg = N[C@@H](C(=O)O)c1ccccc1; Agmatine = N=C(N)NCCCCN*; Bn = c1ccc(C*)cc1
What was measured:
[1] = target: T1, Human Thrombin (Homo sapiens, UniProt P00734); assay: Fibrinogen-thrombin reaction: amount required to double the thrombin time of fibrinogen; assay type: biochemical; settings: for Amount of agmatine derivative required to double the thrombin-time of fibrinogen: bovine fibrinogen, human thrombin 5 NIH Unit/ml, pH 7.4, thrombin time without derivative 15 seconds; for relative activity: related to tosyl-agmatine, taken as unity
T1 construct: 0.1 ml US Standard Human Thrombin 5 NIH Unit/ml
Text: It is known that the simple acyl derivatives of agmatine (1-amino-4-guanidino-butane), as for instance tosyl-agmatine (1-[p-toluene-sulfonylamido]-4-guanidino-butane), have the ability to inhibit the proteolytic reactions of both tripsin and thrombin (Lorand and Rule: Nature, 190, 722, 1961; Rule and Lorand: Biochim. Biophys. Acta, 81, 130, 1964). According to these authors tosyl-agmatine delays the clotting of blood plasma, and also is assumed to suppress the fibrinogen-thrombin reaction. In our own experiments, however, the fibrinogen-thrombin reaction was affected by tosyl-agmatine to a negligible degree: 0.7 mg of tosyl-agmatine is required to double (from 15 sec to 30 sec) the thrombin time of 1 ml of a solution containing 1.25 mg of fibrinogen and 1.25 NIH units of thrombin ("Minimum Requirements of Dried Thrombin", 2nd rev. Div. Biol. Conf. Natl. Inst. Health, Bethesda, Md., United States 1946).
The potency of the substances is defined by the amount of the compound required to double the thrombin time of fibrinogen. Furthermore, the relative potency of the novel agmatine derivatives related to tosyl-agmatine (the activity of the last-mentioned drug is taken as unity) is listed, too.
The potency of the compounds was assayed in the following system:
0.2 ml of 0.5 percent bovine fibrinogen in 0.9 percent NaCl solution,
0.1 ml of tris-(hydroxymethyl)-methylamine hydrochloride buffer solution (pH=7.4) containing the agmatine derivative, and
0.1 ml US Standard Human Thrombin 5 NIH Unit/ml.
The thrombin time of the system devoid of agmatine derivative is 15 seconds.

[2] = target: T1, Human Thrombin; assay: Relative thrombin-time in isolated fibrinogen-thrombin reaction mixture A; assay type: biochemical; settings: system A, without inhibitor = 1
Protocol: (§1) In in vitro trials the effect of D-Phe-Pro-Agm.2HCl (in formula I, X is a D-phenylalanine moiety, B is chloride ion and n=2) and heparin was studied in an isolated system, in a fibrinogen-thrombin reaction mixture A and in human citrate plasma B:
0.2 ml of 0.5 percent bovine fibrinogen in 0.9 percent saline solution,
0.1 ml US Standard Human Thrombin 10 NIH Unit/ml.

[3] = target: T1, Human Thrombin; assay: Relative thrombin-time in human citrate plasma B; assay type: biochemical; settings: system B human citrate plasma, without inhibitor = 1
Protocol: as §1
0.2 ml of human citrate plasma
0.1 ml US Standard Human Thrombin 10 NIH U/ml.

[4] = system: gray rabbits; assay: In vivo prothrombin activity of the blood assayed according to Quick; parameters: species or system rabbit
Protocol: In in vivo trials gray rabbits (2 to 3 kg) were administered subcutaneously:
b. 10 mg/kg D-Phe-Pro-Agm.2HCl, or
c. 5 mg/kg heparin and 10 mg/kg D-Phe-Pro-Agm.2HCl.

[5] = heparin 0.05 μg/ml reaction mixture
[6] = heparin 0.10 μg/ml reaction mixture
[7] = heparin 0.20 μg/ml reaction mixture
[8] = D-Phe-Pro-Agm.2HCl 0.10 μg/ml reaction mixture

Compound: Cc1ccc(S(=O)(=O)NCCCCNC(=N)N)cc1 [Tosyl--agmatine, 1-[p-toluene-sulfonylamido]-4-guanidino-butane, reference compound]
- amount required to double (from 15 sec to 30 sec) the thrombin time ([1]; 1 ml of a solution containing 1.25 mg of fibrinogen and 1.25 NIH units of thrombin): 0.7 mg
- Amount of agmatine derivative required to double the thrombin-time of fibrinogen [1]: 280 μ/reaction mixture
- relative activity [1]: 1

Compound: Heparin
- Relative thrombin-time, alone [2, 5]: 1.1
- Relative thrombin-time, alone [2, 6]: 1.5
- Relative thrombin-time, alone [2, 7]: 2.0
- Relative thrombin-time, alone [3, 5]: 1.0
- Relative thrombin-time, alone [3, 6]: 2.0
- Relative thrombin-time, alone [3, 7]: 3.8
- prothrombin activity of the blood ([4]; 5 mg/kg heparin subcutaneously): practically unaltered

Compound: ClOCl.N=C(N)NCCCCNC(=O)[C@@H]1CCCN1C(=O)[C@H](N)COCc1ccccc1 [H--D--Ser(Bzl)--Pro--Agm, O-Benzyl-D-seryl-L-prolyl-agmatine-dichlorohydrate] (H-[dS](Bn)-Pro-Agmatine)
- Amount of agmatine derivative required to double the thrombin-time of fibrinogen [1]: 0.7 μ/reaction mixture
- relative activity [1]: 400

Compound: ClOCl.N=C(N)NCCCCNC(=O)[C@@H]1CCCN1C(=O)[C@H](N)Cc1ccccc1 [H--D--Phe--Pro--Agm, D-Phenylalanyl-L-prolyl-agmatine-dichlorohydrate] (H-[dF]-Pro-Agmatine)
- Relative thrombin-time, alone [2, 8]: 2.5
- Relative thrombin-time, alone ([2]; D-Phe-Pro-Agm.2HCl 0.20 μg/ml reaction mixture): 4.0
- Relative thrombin-time, alone ([3]; D-Phe-Pro-Agm.2HCl 0.05 μg/ml reaction mixture): 2.2
- Relative thrombin-time, alone [3, 8]: 3.4
- prothrombin activity of the blood ([4]; 10 mg/kg D-Phe-Pro-Agm.2HCl subcutaneously): practically unaltered
- anticoagulant potency (in words) [1]: extremely high activity
- Amount of agmatine derivative required to double the thrombin-time of fibrinogen [1]: 0.12 μ/reaction mixture
- relative activity [1]: 2333

Compound: ClOCl.N=C(N)NCCCCNC(=O)[C@@H]1CCCN1C(=O)[C@H](N)c1ccccc1 [H--D--Phg--Pro--Agm, D-Phenylglycyl-L-prolyl-agmatine-dichlorohydrate] (H-[dPhg]-Pro-Agmatine)
- Amount of agmatine derivative required to double the thrombin-time of fibrinogen [1]: 1.4 μ/reaction mixture
- relative activity [1]: 200
